# According to ChEMBL document CHEMBL3390831, “Design, synthesis, and structureactivity relationships of indole-3-carboxamides as novel water soluble cannabinoid CB1 receptor agonists” (Medchemcomm, 2010):
# pEC50, pKi: −log10 of the molar value.
# Assays:
# Cannabinoid receptor 1 [1] = molecular target: T1, Cannabinoid receptor 1 (Homo sapiens, UniProt P21554)
# Description: Agonist activity at human cannabinoid CB1 receptor expressed in CHO cells co-expressing AP-1 response element after 5 hrs by luciferase reporter gene assay
# [2] = Aqueous solubility of the compound in phosphate buffered saline at pH 7.4 by shake-flask method; type: physicochemical
# Mus musculus [3] = assay: Antinociceptive activity in ICR mouse assessed as inhibition of time spent licking formalin injected paw at 0.03 umol/kg, iv after 20 to 30 mins relative to control; type: functional
# Mus musculus [4] = assay: Antinociceptive activity in ICR mouse assessed as inhibition of time spent licking formalin injected paw at 0.3 umol/kg, iv after 5 to 10 mins relative to control; type: functional
# Mus musculus [5] = assay: Antinociceptive activity in ICR mouse assessed as increase of tail flick latency at 1 umol/kg, iv after 20 to 60 mins by tail flick latency test relative to control; type: functional
# Mus musculus [6] = assay: Antinociceptive activity in iv dosed ICR mouse assessed as increase of tail flick latency after 20 to 60 mins by tail flick latency test; type: functional, organism-based
# Cannabinoid receptor 1 [7] = molecular target: T1, Cannabinoid receptor 1; assay: biochemical
# Mus musculus [8] = assay: Antinociceptive activity in ICR mouse assessed as inhibition of time spent licking formalin injected paw at 0.01 umol/kg, iv after 20 to 30 mins relative to control; type: functional
# [9] = Intrinsic clearance in mouse liver microsomes; type: ADME; conditions: read-out: CLH
# [10] = Intrinsic clearance in human liver microsomes; type: ADME; conditions: read-out: CLH
# [11] = Tmax in ICR mouse plasma at 3 umol/kg, iv; type: ADME, cell-free
# [12] = Aqueous solubility of the compound in phosphate buffered saline at pH 7 by shake-flask method; type: physicochemical
# Mus musculus [13] = assay: Antinociceptive activity in ICR mouse assessed as inhibition of time spent licking formalin injected paw at 0.1 umol/kg, iv after 20 to 30 mins relative to control; type: functional
# Brain = assay: AUC (0 to 1 hr) in ICR mouse brain at 3 umol/kg, iv; type: ADME, tissue-based; parameters: time < 1 hr, dose 3 umol/kg, route intravenous; conditions: in vivo
# [14] = Cmax in ICR mouse brain at 3 umol/kg, iv; type: ADME, tissue-based; parameters: dose 3 umol/kg, route intravenous
# Mus musculus [15] = assay: Antinociceptive activity in ICR mouse assessed as inhibition of time spent licking formalin injected paw at 0.3 umol/kg, iv after 20 to 30 mins relative to control; type: functional
# Cannabinoid receptor 2 = Cannabinoid receptor 2 (Homo sapiens, UniProt P34972); assay: Displacement of [3H]-CP55940 from human cannabinoid CB2 receptor expressed in Sf9 insect cells after 70 mins by scintillation counting
# Cannabinoid receptor 2, sequence (P34972 whole entry): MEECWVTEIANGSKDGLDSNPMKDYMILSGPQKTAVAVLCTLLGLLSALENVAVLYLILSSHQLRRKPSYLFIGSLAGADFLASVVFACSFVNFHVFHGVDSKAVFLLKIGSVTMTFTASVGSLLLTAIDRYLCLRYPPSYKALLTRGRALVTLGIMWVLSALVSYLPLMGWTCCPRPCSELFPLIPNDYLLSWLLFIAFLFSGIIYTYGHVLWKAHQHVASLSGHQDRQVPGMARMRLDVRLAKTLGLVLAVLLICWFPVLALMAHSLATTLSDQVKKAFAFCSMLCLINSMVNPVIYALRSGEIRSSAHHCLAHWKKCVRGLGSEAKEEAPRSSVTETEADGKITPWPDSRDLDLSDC
# [16] = Ratio of Cmax in brain to plasma in ICR mouse at 3 umol/kg, iv; type: ADME, cell-free; conditions: brain and plasma, read-out: BPR
# Mus musculus [17] = assay: Antinociceptive activity in ICR mouse assessed as increase of tail flick latency at 0.1 umol/kg, iv after 20 to 60 mins by tail flick latency test relative to control; type: functional
# [18] = Tmax in ICR mouse brain at 3 umol/kg, iv; type: ADME, tissue-based
# Homo sapiens [19] = species: Homo sapiens; assay: Selectivity ratio of Ki for human ERG to Ki for human cannabinoid CB1 receptor
# Mus musculus [20] = assay: Antinociceptive activity in ICR mouse assessed as inhibition of time spent licking formalin injected paw at 0.01 umol/kg, iv after 5 to 10 mins relative to control; type: functional
# Homo sapiens [21] = species: Homo sapiens; assay: Selectivity ratio of Ki for human ERG to Ki for human cannabinoid CB2 receptor
# [22] = Clearance in ICR mouse plasma at 3 umol/kg, iv; type: ADME, cell-free
# Mus musculus [23] = assay: Antinociceptive activity in iv dosed ICR mouse assessed as time taken for tail flick latency to return to within mean plus two standard deviations of baseline value following twice ED50 dose by tail flick latency test; type: functional
# Mus musculus [24] = assay: Antinociceptive activity in ICR mouse assessed as inhibition of time spent licking formalin injected paw at 0.1 umol/kg, iv after 5 to 10 mins relative to control; type: functional
# [25] = Elimination half life in ICR mouse plasma at 3 umol/kg, iv; type: ADME, cell-free; conditions: read-out: beta t1/2 (converted)
# [26] = Cmax in ICR mouse plasma at 3 umol/kg, iv; type: ADME, cell-free; parameters: dose 3 umol/kg, route intravenous
# Mus musculus [27] = assay: Antinociceptive activity in ICR mouse assessed as increase of tail flick latency at 0.3 umol/kg, iv after 20 to 60 mins by tail flick latency test relative to control; type: functional
# [28] = AUC in ICR mouse plasma at 3 umol/kg, iv; type: ADME, cell-free
# Mus musculus [29] = assay: Antinociceptive activity in iv dosed ICR mouse assessed as inhibition of time spent licking formalin injected paw after 5 to 30 mins; type: functional, organism-based
# Mus musculus [30] = assay: Antinociceptive activity in ICR mouse assessed as inhibition of time spent licking formalin injected paw at 0.03 umol/kg, iv after 5 to 10 mins relative to control; type: functional
# [31] = Aqueous solubility of the compound in citrate buffer at pH 5 by shake-flask method; type: physicochemical
# [32] = Volume of distribution at steady state in ICR mouse plasma at 3 umol/kg, iv; type: ADME, cell-free; conditions: read-out: Vdss
# [33] = Aqueous solubility of the compound in phosphate buffered saline at pH 7.1 by shake-flask method; type: physicochemical
# [34] = Aqueous solubility of the compound in phosphate buffered saline at pH 6.7 by shake-flask method; type: physicochemical
# [35] = Aqueous solubility of the compound in phosphate buffered saline at pH 6.9 by shake-flask method; type: physicochemical
# [36] = Aqueous solubility of the compound in citrate buffer at pH 4.9 by shake-flask method; type: physicochemical
# Mus musculus [37] = assay: Antinociceptive activity in ICR mouse assessed as increase of tail flick latency at 0.4 umol/kg, iv after 20 to 60 mins by tail flick latency test relative to control; type: functional
# Mus musculus [38] = assay: Antinociceptive activity in ICR mouse assessed as increase of tail flick latency at 0.2 umol/kg, iv after 20 to 60 mins by tail flick latency test relative to control; type: functional
# T1 sequence (P21554 whole entry): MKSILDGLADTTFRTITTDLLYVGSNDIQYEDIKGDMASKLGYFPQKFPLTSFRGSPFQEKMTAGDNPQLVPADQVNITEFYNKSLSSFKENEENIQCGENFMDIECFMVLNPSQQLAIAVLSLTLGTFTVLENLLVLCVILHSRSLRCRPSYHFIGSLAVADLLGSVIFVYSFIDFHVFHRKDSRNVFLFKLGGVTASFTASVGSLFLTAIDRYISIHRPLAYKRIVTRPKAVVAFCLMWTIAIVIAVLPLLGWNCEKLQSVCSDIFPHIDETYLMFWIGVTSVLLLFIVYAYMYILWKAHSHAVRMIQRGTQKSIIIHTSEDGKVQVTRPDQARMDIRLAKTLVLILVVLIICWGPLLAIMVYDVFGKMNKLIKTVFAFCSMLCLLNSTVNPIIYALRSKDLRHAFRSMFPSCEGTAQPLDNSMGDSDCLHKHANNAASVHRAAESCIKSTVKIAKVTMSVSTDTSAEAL
compound,measurement,setting,value
CCN1CCN(C(=O)c2cn(CC3CCCCC3)c3cc(OC)ccc23)CC1,pEC50,Cannabinoid receptor 1 [1],6.80
CS(=O)(=O)O.O=C(Cc1ccccc1)N/N=C1\C(=O)N(CC2CCCCC2)c2cc(OCCN3CCOCC3)ccc21,solubility thermodynamic,[2],< 500 µg/mL
CN1CCN(C(=O)c2cn(CC3CCCCC3)c3ccccc23)CC1,pEC50,Cannabinoid receptor 1 [1],6.30
CN(C)CCN(C)C(=O)c1cn(CC2CCCCC2)c2ccccc12,pEC50,Cannabinoid receptor 1 [1],< 5.50
CCN1CCN(C(=O)c2cn(CC3CCCCC3)c3cc(F)ccc23)CC1,pEC50,Cannabinoid receptor 1 [1],6.60
COc1cccc2c(C(=O)N3C[C@@H](C)N(C)[C@@H](C)C3)cn(CC3CCCCC3)c12.Cl,inhibition in vivo at 0.03 µmol/kg,Mus musculus [3],86.9%
same,inhibition in vivo at 0.3 µmol/kg,Mus musculus [4],97.8%
same,MPE,Mus musculus [5],100%
same,Activity,Mus musculus [6],Dose-dependent effect
same,pKi,Cannabinoid receptor 1 [7],8.90
same,inhibition in vivo at 0.01 µmol/kg,Mus musculus [8],7.8%
same,microsomal CLint,[9],> 270 µL/min/mg
same,microsomal CLint,[10],> 270 µL/min/mg
same,Tmax,[11],3 min
same,solubility thermodynamic,[12],12 µg/mL
same,inhibition in vivo at 0.1 µmol/kg,Mus musculus [13],93.3%
same,AUC,Brain,616 ng·h/g
same,Cmax,[14],1620 ng/g
same,inhibition in vivo at 0.3 µmol/kg,Mus musculus [15],99.8%
same,pKi,Cannabinoid receptor 2,9.10
same,Kp,[16],2.7
same,MPE,Mus musculus [17],14.5%
same,Tmax,[18],3 min
same,Ratio Ki,Homo sapiens [19],> 100
same,inhibition in vivo at 0.01 µmol/kg,Mus musculus [20],16.4%
same,Ratio Ki,Homo sapiens [21],> 100
same,clearance,[22],77.4 mL/min/kg
same,Time,Mus musculus [23],50 min
same,inhibition in vivo at 0.1 µmol/kg,Mus musculus [24],84%
same,half-life,[25],19.2 min
same,Cmax,[26],593 ng/mL
same,MPE,Mus musculus [27],72.3%
same,AUC,[28],253 ng·h/mL
same,inhibition,Mus musculus [29],Dose-dependent effect
same,inhibition in vivo at 0.03 µmol/kg,Mus musculus [30],49.5%
same,solubility thermodynamic,[31],> 4000 µg/mL
same,Vd,[32],2 L/kg
CCN1CCN(C(=O)c2cn(CC3CCCCC3)c3cc(Br)ccc23)CC1,pEC50,Cannabinoid receptor 1 [1],6.00
O=C(Cc1ccccc1)N/N=C1\C(=O)N(CC2CCCCC2)c2cc(OCCN3CCOCC3)ccc21,pEC50,Cannabinoid receptor 1 [1],7.20
CCN1CCN(C(=O)c2cn(CC3CCCCC3)c3c(OC)cccc23)C[C@@H]1C.Cl,pEC50,Cannabinoid receptor 1 [1],7.40
same,solubility thermodynamic,[33],37 µg/mL
same,solubility thermodynamic,[31],> 4000 µg/mL
CCN1CCN(C(=O)c2cn(CC3CCCCC3)c3c(Cl)cccc23)CC1,pEC50,Cannabinoid receptor 1 [1],6.30
CCN1CCN(C(=O)c2cn(CC3CCCCC3)c3c(OC)cccc23)CC1(C)C.Cl,pEC50,Cannabinoid receptor 1 [1],6.90
same,solubility thermodynamic,[33],181 µg/mL
same,solubility thermodynamic,[31],3830 µg/mL
CCN1CCN(C(=O)c2cn(CC3CCCCC3)c3cccc(F)c23)CC1,pEC50,Cannabinoid receptor 1 [1],6.60
CCN1CCN(C(=O)c2cn(CCN3CCOCC3)c3c(OC)cccc23)CC1,pEC50,Cannabinoid receptor 1 [1],< 5.50
CCN1CCN(C(=O)c2cn(CC3CCCCC3)c3c(OC)cccc23)CC1.O=C(O)/C=C\C(=O)O,solubility thermodynamic,[34],216 µg/mL
same,solubility thermodynamic,[31],3400 µg/mL
CCN1CCN(C(=O)c2cn(CC3CCCCC3)c3c(OC)cccc23)C[C@H]1C.Cl,pEC50,Cannabinoid receptor 1 [1],6.20
same,solubility thermodynamic,[33],74 µg/mL
same,solubility thermodynamic,[31],> 4000 µg/mL
COc1cccc2c(C(=O)N3CCN(C)C(C)(C)C3)cn(CC3CCCCC3)c12.Cl,pEC50,Cannabinoid receptor 1 [1],6.80
same,solubility thermodynamic,[12],129 µg/mL
same,solubility thermodynamic,[31],2160 µg/mL
COc1cccc2c(C(=O)N3CCN(C)[C@@H](C)C3)cn(CC3CCCCC3)c12.Cl,inhibition in vivo at 0.03 µmol/kg,Mus musculus [3],79.7%
same,inhibition in vivo at 0.3 µmol/kg,Mus musculus [4],100%
same,MPE,Mus musculus [5],100%
same,solubility thermodynamic,[35],129 µg/mL
same,Activity,Mus musculus [6],Dose-dependent effect
same,solubility thermodynamic,[36],2810 µg/mL
same,pKi,Cannabinoid receptor 1 [7],8.90
same,inhibition in vivo at 0.01 µmol/kg,Mus musculus [8],49.2%
same,microsomal CLint,[9],> 270 µL/min/mg
same,microsomal CLint,[10],> 270 µL/min/mg
same,Tmax,[11],3 min
same,inhibition in vivo at 0.1 µmol/kg,Mus musculus [13],93.4%
same,AUC,Brain,804 ng·h/g
same,Cmax,[14],2460 ng/g
same,inhibition in vivo at 0.3 µmol/kg,Mus musculus [15],100%
same,MPE,Mus musculus [37],50.1%
same,pKi,Cannabinoid receptor 2,8.80
same,Kp,[16],4
same,Tmax,[18],10.2 min
same,Ratio Ki,Homo sapiens [19],> 100
same,inhibition in vivo at 0.01 µmol/kg,Mus musculus [20],25.7%
same,Ratio Ki,Homo sapiens [21],> 100
same,clearance,[22],77.3 mL/min/kg
same,MPE,Mus musculus [38],18.3%
same,Time,Mus musculus [23],90 min
same,inhibition in vivo at 0.1 µmol/kg,Mus musculus [24],99%
same,half-life,[25],24.6 min
same,Cmax,[26],620 ng/mL
same,AUC,[28],248 ng·h/mL
same,inhibition,Mus musculus [29],Dose-dependent effect
same,inhibition in vivo at 0.03 µmol/kg,Mus musculus [30],66%
same,Vd,[32],2.1 L/kg
